According to patent US20230331679A1, “NAPHTHALENE MONOIMIDE COMPOUNDS AND METHODS THEREOF” (JAWAHARLAL NEHRU CENTRE FOR ADVANCED SCIENTIFIC RESEARCH, priority 2020, published 2023):

Assays:
[1] = Octanol/water partition coefficient (LogP); assay type: physicochemical
Description: Pharmacokinetics of TGR63 in wild-type (WT) mice was performed to assess its in vivo efficacy. The lethal dose 50 (LD50) of TGR63 was determined in WT mice through intraperitoneal (IP) injection following the Organisation for Economic Cooperation and Development (OECD) guidelines. […] FIG. 7A illustrates the calculation of lethal dose 50% (LD50) of TGR63 through intraperitoneal administration and is represented as table of experimental details and the final observation was done on 14th day. FIG. 7B illustrates the mortality (%) plotted against TGR63 concentration and calculation of LD50. Twenty-five WT mice were segregated in five different groups (G1-5, N= 5 per group) and administered with varying doses of TGR63 (1.7, 5.5, 17.5 56.0 and 179.0 mg/kg body weight, respectively) through IP injection and their survival was monitored for 14 days. The serum stability and blood-brain barrier (BBB) crossing ability of TGR63 were assessed through matrix-assisted laser desorption ionization (MALDI) mass spectrometry analysis of blood and brain samples of vehicle and TGR63 treated mice. TGR63 and vehicle were administrated in WT mice and sacrificed after 1 and 24 h to collect the blood for MALDI mass analysis FIG. 8 depicts the MALDI mass analysis of vehicle (FIG. 8A) and TGR63 treated mice blood serum after 1 h (FIG. 8B) and 24 h (FIG. 8C) of administration. The presence of TGR63 in blood was confirmed from the mass analysis even after 24 h. […] TGR63 was incubated in PBS (10 mM, pH= 7.4) and blood serum in WT mice for different time intervals (0.5, 1, 2 and 6 h) at 37° C. to evaluate the serum stability under in vitro conditions. […] FIG. 9 depicts the Serum stability of TGR63 under in vitro conditions. TGR63 was incubated in PBS (10 mM, pH= 7.4) and blood serum (WT mouse) for different time (0.5, 1, 2 and 6 h) at 37° C. […] The partition coefficient (P), a valuable physical property was calculated to predict the BBB permeability. […] FIG. 10 depicts the calculation of LogP. […] The calculated positive logP value predicts the possible BBB crossing ability for TGR63. […]

SHSY5Y cells = experiment: Membrane toxicity modulation, immunocytochemistry in SHSY5Y cells; assay type: cell-based; conditions: Aβ42 pre-incubated 24 h with TGR63, 2 h treatment
Description: Inspiring from the above-mentioned studies, membrane toxicity modulation ability of TGR63 through immunocytochemistry in SHSY5Y cells was also investigated. The cells were cultured in 35 mm confocal dishes and treated individually with Aβ42 samples, pre-incubated for 24 h in the presence and absence of TGR63 for 2 h under cell growing conditions. Then the experimental cells were washed and fixed using 4% paraformaldehyde (PFA) to probe the Aβ42 fibrils with OC (1:250) antibody, followed by red fluorescent labeled (λex= 633 nm and λem= 650 nm) secondary antibody (Alexa 633-A21052, Thermo). Finally, unbound antibody was washed and 4′,6-diamidino-2-phenylindole (DAPI) was used to stain the nucleus before the confocal imaging. For DAPI staining, experimental cells were incubated with DAPI (500 nM) solution (PBS) for 10 min at room temperature. Then, the cells were washed with PBS three times and imaged under confocal fluorescence microscope (λex= 358 nm, […]). FIG. 5 depicts the images obtained by nuclear staining of SHSY5Y cells with DAPI(blue) and Aβ42 fibrils staining with OC antibody and red fluorescent labelled secondary antibody.

APP/PS1 and WT mice = experiment: Novel object identification (NOI) test; assay type: in vivo
Description: In OF test, all the experimental mice were individually allowed to explore a novel platform (45 X 45 cm) and their locomotion activity was monitored for 5 min (Sony HDRCX405 camera) and analyzed using the smart 3 software (Panlab; FIG. 16A). […] The anxiety behaviors of TGR63 treated mice were assessed by the time spent and the entries in the center zone (20 X 20 cm) of OF arena. […] Next, the effect of TGR63 on memory processing, viz., acquisition, consolidation and retrieval were evaluated through NOI test, which has been widely used as a tool to study the neurobiology of memory using the natural tendency of rodents to explore novel objects more than the familiar objects. All the experimental mice were familiarized with two identical objects (familiar objects) in a known habituated arena and allowed to explore a novel and familiar object after 24 and 48 h of familiarization (FIG. 16E). The exploration time with each object was measured using a stopwatch, and the discrimination index (DI) was determined using the formula, (time exploring the novel object - time exploring the familiar) / (time exploring novel + familiar) * 100. […] Similarly, the calculated DI after 48 h was lowest (-7) for AD vehicle cohort compared to both vehicle and TGR63 treated WT cohorts (+43 and +45, respectively) (FIG. 16G). […] The blocking of essential synaptic receptors (NMDA and AMPA) by Aβ aggregation species leading to synaptic dysfunction followed by impairment in hippocampal LTP formation. […] TGR63 treatment ameliorates the memory impairment in APP/PS 1 mice by reducing the toxic amyloid burden from the brain under progressive AD conditions.

WT mice = experiment: LD50 by intraperitoneal injection (OECD guidelines); assay type: in vivo; conditions: IP injection, survival monitored 14 days
Description: Pharmacokinetics of TGR63 in wild-type (WT) mice was performed to assess its in vivo efficacy. The lethal dose 50 (LD50) of TGR63 was determined in WT mice through intraperitoneal (IP) injection following the Organisation for Economic Cooperation and Development (OECD) guidelines. […] FIG. 7A illustrates the calculation of lethal dose 50% (LD50) of TGR63 through intraperitoneal administration and is represented as table of experimental details and the final observation was done on 14th day. FIG. 7B illustrates the mortality (%) plotted against TGR63 concentration and calculation of LD50. Twenty-five WT mice were segregated in five different groups (G1-5, N= 5 per group) and administered with varying doses of TGR63 (1.7, 5.5, 17.5 56.0 and 179.0 mg/kg body weight, respectively) through IP injection and their survival was monitored for 14 days. The serum stability and blood-brain barrier (BBB) crossing ability of TGR63 were assessed through matrix-assisted laser desorption ionization (MALDI) mass spectrometry analysis of blood and brain samples of vehicle and TGR63 treated mice. […] The partition coefficient (P), a valuable physical property was calculated to predict the BBB permeability. […] The calculated positive logP value predicts the possible BBB crossing ability for TGR63. […]

Aβ42 fibrils = target: T1, Aβ42 fibrils (Homo sapiens, UniProt P05067); experiment: TEM visualization of Aβ42 aggregation species; assay type: biochemical; conditions: 10 µM Aβ42, 50 µM TGR63, 48 h
T1 construct: commercially available β-amyloid peptide (1-42), human; purchased marck (so in the source) PP69-.025 mg
Description: To visualize the amyloid fibrils, the 10 µM of Aβ42 peptides were incubated alone, and in combination with 50 µM TGR63 for 48 h and spotted on mica surface and TEM grid to acquire the TEM images. FIG. 4(a) and FIG. 4(b) show the TEM images of Aβ42 aggregation species in the absence and presence of TGR63 respectively.

T1 sequence (P05067 672-713 limits assumed): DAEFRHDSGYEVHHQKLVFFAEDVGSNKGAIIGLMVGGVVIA

## CN(C)c1ccc(C#Cc2ccc3c4c(cccc24)C(=O)N(CC[N+](C)(C)C)C3=O)cc1 [TGR63, 2-(6-((4-(dimethylamino)phenyl)ethynyl)-1,3-dioxo-1H-benzo[de]isoquinolin-2(3H)-yl)-N,N,N-trimethylethan-1-aminium]
[1]; calculated from octanol and water layer concentrations
  logP: 0.1
[1]; octanol/water partition
  concentration in octanol layer: 21.82 µM
  concentration in water layer: 18.18 µM
SHSY5Y cells
  OC red fluorescence signal of Aβ42 fibrils on plasma membrane: lower red fluorescence signal on the plasma membrane
APP/PS1 and WT mice; AD TGR63 cohort, after 24 h, AD vehicle -3
  discrimination index (DI): +43
APP/PS1 and WT mice; AD TGR63 cohort, after 48 h, AD vehicle -7
  discrimination index (DI): +38
APP/PS1 and WT mice; TGR63 treated WT and AD cohorts
  reduction of DI at 48 h compared to 24 h: ~ 5 units of DI
APP/PS1 and WT mice; WT TGR63 cohort, after 24 h, WT vehicle +49
  discrimination index (DI): +50
APP/PS1 and WT mice; WT TGR63 cohort, after 48 h, WT vehicle +43
  discrimination index (DI): +45
WT mice
  LD50: ~ 157.9 mg/kg body weight
Aβ42 fibrils
  intertwined structure of Aβ42 fibrils (TEM): disrupted
